Reference: patent US20220396597A1 (priority 2019, published 2022)

How the values were obtained:
[1] = molecular target: α1Q241L mutated GABAARs (UniProt P18507+P47870+P62813, Q268L); test: GABA current in N2a cells transfected with α1Q241L, β2 and γ2 subunits; type: cell-based; settings: 10 μM GABA; AlloP 50 nM, MQ-221 10 μM
[2] = system: NMDAR; test: NMDA-induced whole-cell currents in cultured hippocampal neurons (voltage clamp); type: cell-based, rat; settings: 10 μM NMDA

Sequence of α1Q241L mutated GABAARs (P62813 28-455 Q268L): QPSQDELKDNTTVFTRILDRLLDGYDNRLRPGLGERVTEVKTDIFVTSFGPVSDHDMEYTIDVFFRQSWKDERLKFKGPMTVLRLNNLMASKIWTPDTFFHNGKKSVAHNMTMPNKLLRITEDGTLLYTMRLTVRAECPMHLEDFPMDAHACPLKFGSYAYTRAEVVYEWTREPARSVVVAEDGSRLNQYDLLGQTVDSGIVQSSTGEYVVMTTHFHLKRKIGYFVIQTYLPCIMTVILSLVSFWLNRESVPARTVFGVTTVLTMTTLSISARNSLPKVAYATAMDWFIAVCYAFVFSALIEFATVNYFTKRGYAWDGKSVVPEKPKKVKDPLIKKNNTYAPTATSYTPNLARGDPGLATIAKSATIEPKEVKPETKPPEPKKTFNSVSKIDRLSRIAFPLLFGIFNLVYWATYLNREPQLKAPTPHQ
Sequence of α1Q241L mutated GABAARs (P47870 25-512 limits assumed): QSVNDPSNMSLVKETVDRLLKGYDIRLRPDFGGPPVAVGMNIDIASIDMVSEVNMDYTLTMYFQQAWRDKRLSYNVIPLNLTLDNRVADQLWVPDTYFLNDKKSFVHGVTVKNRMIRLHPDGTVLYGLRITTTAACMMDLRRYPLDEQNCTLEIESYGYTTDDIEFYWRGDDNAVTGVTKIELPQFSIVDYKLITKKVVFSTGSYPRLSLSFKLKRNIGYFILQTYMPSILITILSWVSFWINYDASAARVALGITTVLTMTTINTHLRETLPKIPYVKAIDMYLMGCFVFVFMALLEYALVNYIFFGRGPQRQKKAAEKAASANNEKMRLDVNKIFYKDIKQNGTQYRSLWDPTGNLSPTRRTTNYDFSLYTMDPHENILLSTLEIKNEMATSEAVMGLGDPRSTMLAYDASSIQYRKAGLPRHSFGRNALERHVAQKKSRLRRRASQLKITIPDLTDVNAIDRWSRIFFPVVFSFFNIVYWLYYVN
Sequence of α1Q241L mutated GABAARs (P18507 40-475): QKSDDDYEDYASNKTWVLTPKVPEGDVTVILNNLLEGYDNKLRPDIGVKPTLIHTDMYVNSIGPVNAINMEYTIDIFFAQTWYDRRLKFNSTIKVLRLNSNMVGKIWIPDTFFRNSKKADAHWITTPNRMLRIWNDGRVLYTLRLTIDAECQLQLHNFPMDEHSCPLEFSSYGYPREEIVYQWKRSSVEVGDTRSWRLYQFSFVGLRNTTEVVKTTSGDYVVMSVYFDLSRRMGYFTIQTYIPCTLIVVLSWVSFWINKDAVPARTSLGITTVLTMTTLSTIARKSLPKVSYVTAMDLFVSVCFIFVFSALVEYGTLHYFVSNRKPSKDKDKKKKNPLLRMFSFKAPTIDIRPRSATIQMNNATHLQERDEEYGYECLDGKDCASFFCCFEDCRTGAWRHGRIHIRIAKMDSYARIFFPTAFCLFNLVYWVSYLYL

Compound	Effect of the α1 Q241L mutation on potentiation of GABA current [1]	Action on closed NMDAR channels (pre-application in the absence of agonist) ([2]; 2.5 μM MQ-221, 300 μM 3α5βPS)	Inhibition of NMDAR function in the presence of agonist (co-application) ([2]; 300 μM 3α5βPS)
CC(=O)[C@H]1CC[C@H]2[C@@H]3CC[C@H]4C[C@H](O)CC[C@]4(C)[C@H]3CC[C@]12C [allopregnanolone, reference compound]	elimination of allopregnanolone (AlloP) potentiation	–	–
pregnanolone sulfate [reference compound]	–	little effect on closed channels	strongly inhibited
